The values that follow come from paper PMC7109127 (British Journal of Cancer, 2020).

Values joined by “and” are separate entries in the source; they are usually repeats but may differ in a detail not shown here. Identical values can stand only once.

The test system of one series is advanced HCC. As to the kind of experiment: phase 1b/2 study, antineoplastic efficacy (RECIST 1.1, PFS, OS). The format is in vivo, patients. As to the method: This was a phase 1b/2, open-label, single-arm multicentre clinical trial. Subjects were accrued at Roswell Park Comprehensive Cancer Centre (RPCI) and Case Comprehensive Cancer Centre. The respective institutional review board (IRB) approved the protocol at each site. The study was conducted according to the principles of the Declaration of Helsinki, the International Conference on Harmonisation and the Guidelines for Good Clinical Practice. All patients provided written informed consent. The trial was registered with ClinicalTrials.gov (NCT01835223).
Secondary objectives included determination of safety and the PK/PD of tivozanib in patients with advanced HCC. The primary endpoint was PFS at 24 weeks. PFS and not ORR were selected because at the time of study inception PFS or time to progression were acceptable primary efficacy endpoints in early phase HCC studies in view of very low ORR with anti-VEGFR agents. Patients who remained alive and without evidence of disease progression per RECIST 1.1 for at least 24 weeks after enrolment were considered as PFS responders. Secondary endpoints were AEs by CTCAE v4.0, steady state PK, ORR, OS, change in HBV or HCV viral load, serum α-fetoprotein (AFP), and changes in soluble VEGFR-2 (sVEGFR-2).
Using the 3+3 design, the MTD was the DL with probability of DLT 33% or higher. With three dose levels, between 6 and 18 patients were required to complete the phase 1b portion. In terms of antineoplastic efficacy, the true progression rate of less than p0 = 0.50 was considered unacceptable and evidence of such will deem the treatment not worthy of further study. The null and alternative hypotheses tested were H0: p = p0 vs. H1: p > p0. With this two-stage design, a potential total of 37 patients was required to achieve 80% power to detect a difference of at least 20% with a type I error of 5%. Using a two-stage design, a total of 19 patients were planned to be enrolled initially, including the phase 1b patients treated at the MTD/RP2D. If nine or fewer PFS responses were observed, the therapy would be deemed ineffective and the study would end. Otherwise, an additional 18 patients would be enrolled. If 23 or fewer PFS responses are observed in the total efficacy population, therapy would be deemed ineffective; otherwise, it will be concluded that the therapy is promising. The differences on outcomes between study groups were compared by non-parametric Kruskal–Wallis test and Fisher’s/χ^2 test. OS and PFS were estimated by the Kaplan–Meier method and compared by log-rank test. All tests were two sided and performed at a nominal significance level of 0.05. SAS version 9.4 (SAS Institute, Cary, NC) is used for statistical analyses.

In the next series the test system is sVEGFR-2. In words: phase 1b/2 study, pharmacodynamics: plasma sVEGFR-2 by ELISA. The format is in vivo, Human. The following applies: for sVEGFR-2, median percent decrease from baseline: day 15. As to the method: For sVEGFR-2, plasma EDTA samples (220 μL) were analysed in duplicate using a commercially available enzyme-linked immunosorbent assay (Quantikine® ELISA Human VEGFR-2/KDR immunoassay, R&D Systems® Inc., Minneapolis, MN) that was validated according to the FDA guidance. A Tomtec Quadra 4 (Tomtec Inc., Hamden, CT) liquid handling robot was used to transfer all solutions to the 96-well plate to eliminate time-dependent variability associated with manual pipetting. After the addition of the Stop Solution in the final step, the absorbance of each well was measured at 450 and 540 nm on a Synergy HT plate reader (BioTek Instruments, Winooski, VT). The readings at 540 nm were subtracted from the absorbance readings at 450 nm to correct for any optical imperfections in the 96-well plate. Sample concentrations were back-calculated against calibration curves (80.0–5000 pg/mL) that were generated based on a 4-parameter fit of absorbance vs. nominal concentrations (pg/mL) using the Gen 5 software (BioTek Instruments).

For a further series, the system named is CYP3A4. As to conditions: background statement; cited from earlier work.
[1] abbreviates: RP2D 1 mg, efficacy population N = 19.

As to `COc1cc2nccc(Oc3ccc(NC(=O)Nc4cc(C)on4)c(Cl)c3)c2cc1OC` [tivozanib], the “24-week PFS probability” value in the series on advanced HCC (Kaplan–Meier, N = 19) is on record as 58%. For the same compound, the “1-year OS rate” value in the series on advanced HCC (N = 19) was 40%. In addition, in the series on advanced HCC (N = 19), the “2-year OS rate” value is 30%. In the series with advanced HCC (RECIST 1.1, N = 19), the “overall disease control rate” value turned out to be 63%. For the same compound, in the series on advanced HCC (RP2D 1 mg, N = 19), the “PFS responders at 24 weeks (6-month PFS)” value is listed as 47.3%. Also, in the series on advanced HCC (RP2D 1 mg, N = 19), the “overall response rate (PR, RECIST 1.1)” value worked out at 21%. Further, the “median OS” value in the series on advanced HCC (setting [1]) was 9 months and 9.0 months. In the series on advanced HCC (setting [1]), the “median PFS” value is listed as 24 weeks. The “sVEGFR-2, median pre-dose level” value in the series on sVEGFR-2 (cycle 1 day 1) stood at 8.64 µg/L; with sVEGFR-2 (cycle 1 day 15), 5.37 µg/L. Besides, the “sVEGFR-2, median percent decrease from baseline” value in the series on sVEGFR-2 (PFS responders) is 32.4%; with sVEGFR-2 (PR by RECIST 1.1), 30.9%; in the series with sVEGFR-2 (SD by RECIST 1.1), 40.5%; in the series with sVEGFR-2 (all patients), 31.1%; with sVEGFR-2 (not PFS responders) it was 30.1%; in the series on sVEGFR-2 (progressive disease (PD) by RECIST 1.1), 27.4%. Moreover, the “interaction with CYP3A4 inhibitors” value with CYP3A4 is on record as “no interaction”.
